Laboratory results taken from ChEMBL document CHEMBL1147219, “Hyperatomarin, an antibacterial prenylated phloroglucinol from Hypericumatomarium ssp. degenii” (2003).
Converted amounts (≈) assume the structure as drawn.

Columns and labels:
Type in all cases: functional
Bacillus = assay: Antibacterial activity against Bacillus IP 5832 after 24 hrs by agar dilution method
Staphylococcus aureus = assay: Antibacterial activity against Staphylococcus aureus ATCC 25923 after 24 hrs by agar dilution method; conditions: ATCC 25923, 24 h
Micrococcus luteus = assay: Antibacterial activity against Micrococcus luteus ATCC 4698 after 24 hrs by agar dilution method; conditions: ATCC 4698, 24 h
Bacillus subtilis = assay: Antibacterial activity against Bacillus subtilis ATCC 6633 after 24 hrs by agar dilution method; conditions: ATCC 6633, 24 h

Row | SMILES | MIC (Bacillus) [µg/mL] | MIC (Staphylococcus aureus) [µg/mL] | MIC (Micrococcus luteus) [µg/mL] | MIC (Bacillus subtilis) [µg/mL]
1 | CC[C@H]1OC(=O)[C@H](C)[C@@H](O[C@H]2C[C@@](C)(OC)[C@@H](O)[C@H](C)O2)[C@H](C)[C@@H](O[C@@H]2O[C@H](C)C[C@H](N(C)C)[C@H]2O)[C@](C)(O)C[C@@H](C)C(=O)[C@H](C)[C@@H](O)[C@]1(C)O [ERYTHROMYCIN] | 0.39 (≈ 0.531 µM) | 0.2 (≈ 0.273 µM) | 0.2 (≈ 0.273 µM) | 0.39 (≈ 0.531 µM)
2 | CC(C)=CCC[C@@]1(C)[C@H](CC=C(C)C)C[C@@H]2C(=O)C(C(=O)C(C)C)=C(O)[C@H]1C2=O [HYPERATOMARIN] | 1.56 (≈ 3.89 µM) | 1.56 (≈ 3.89 µM) | 1.56 (≈ 3.89 µM) | 3.12 (≈ 7.79 µM)
